One test addresses T1, SGLT2 (Homo sapiens, UniProt P31639).
T1 construct: Human full-length SGLT2 cDNA (NM_003041.3) was synthesized; expressed in transfected cells; host or cells: HEK293, retroviral transduction with pMSCVpuro-SGLT2, puromycin selected
T1 sequence (P31639 1-672): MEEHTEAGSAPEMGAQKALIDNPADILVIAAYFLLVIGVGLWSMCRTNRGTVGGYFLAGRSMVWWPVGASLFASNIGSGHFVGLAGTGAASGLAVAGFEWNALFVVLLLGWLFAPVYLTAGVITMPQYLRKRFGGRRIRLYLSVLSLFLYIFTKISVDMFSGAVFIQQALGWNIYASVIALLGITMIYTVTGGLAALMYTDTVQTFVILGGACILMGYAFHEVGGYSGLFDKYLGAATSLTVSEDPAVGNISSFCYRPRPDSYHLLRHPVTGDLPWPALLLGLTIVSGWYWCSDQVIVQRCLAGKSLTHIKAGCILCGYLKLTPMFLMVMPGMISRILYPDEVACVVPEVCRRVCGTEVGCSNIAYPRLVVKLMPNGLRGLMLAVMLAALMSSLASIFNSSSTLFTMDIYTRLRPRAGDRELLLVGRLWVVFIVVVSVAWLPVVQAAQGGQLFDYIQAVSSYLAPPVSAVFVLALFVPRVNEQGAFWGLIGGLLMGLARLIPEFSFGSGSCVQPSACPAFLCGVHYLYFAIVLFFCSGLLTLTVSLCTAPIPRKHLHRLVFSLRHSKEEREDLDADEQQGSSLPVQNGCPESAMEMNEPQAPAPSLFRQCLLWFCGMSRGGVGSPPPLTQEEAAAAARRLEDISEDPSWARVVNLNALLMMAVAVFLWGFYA
Nature of the test: 1-NBDG uptake in HEK293 cells stably expressing SGLT2. The format is cell-based. The note with it: HEK293, compound at 10 μM; triplicate; read-out: SGLT2 inhibitory rates.

A further test addresses AbCGT (Aloe vera, UniProt A0A7G9P699). Kind of test: Glycosyltransferase activity assay, purified AbCGT (wild type) with aglycon acceptors and UDP-Glc. Particulars: Reaction-1 to -3; for conversion rates, O,N,S-glycosylation / conversion rates, di-C-glycosylation / conversion rates, mono-C-glycosylation: aglycon acceptor with UDP-Glc, pH 7.4, 30 °C, up to 12 h; for conversion rates, Purified Enzyme: fig. 2b, purified AbCGT, redesigned substrates. The test is classed as biochemical, Aloe barbadensis.

The next test deals with E. coli-AbCGT. Nature of the test: Glycosylation by whole-cell biocatalyst E. coli-AbCGT. Particulars: fig. 2c, 30 °C, M9 medium, 12 h, 0.25 mM acceptor; Reaction-1 to -3. The test is classed as cell-based. The procedure:
The induced cells of E. coli-AbCGT were harvested by centrifugation at 3000 × g for 5 min at 4 °C and washed with ddH2O. Pellets were resuspended by M9 minimal medium containing 2% glucose to appropriate cell density (OD600 = 3.0). Prepared whole-cell biocatalyst of E. coli-AbCGT (500 μL) was then added to 2-mL tubes containing various acceptors at a concentration of 0.25 mM. The mixture was incubated at 30 °C for 12 h with shaking (200 rpm). The reactions were analyzed using GT activity assays as described above. For quantification, three parallel assays were routinely carried out.

“And” between values parts separate entries of the source, which are not always exact repeats. Equal entries are not always repeated.

AbCGT, sequence (A0A7G9P699 entry or part of it): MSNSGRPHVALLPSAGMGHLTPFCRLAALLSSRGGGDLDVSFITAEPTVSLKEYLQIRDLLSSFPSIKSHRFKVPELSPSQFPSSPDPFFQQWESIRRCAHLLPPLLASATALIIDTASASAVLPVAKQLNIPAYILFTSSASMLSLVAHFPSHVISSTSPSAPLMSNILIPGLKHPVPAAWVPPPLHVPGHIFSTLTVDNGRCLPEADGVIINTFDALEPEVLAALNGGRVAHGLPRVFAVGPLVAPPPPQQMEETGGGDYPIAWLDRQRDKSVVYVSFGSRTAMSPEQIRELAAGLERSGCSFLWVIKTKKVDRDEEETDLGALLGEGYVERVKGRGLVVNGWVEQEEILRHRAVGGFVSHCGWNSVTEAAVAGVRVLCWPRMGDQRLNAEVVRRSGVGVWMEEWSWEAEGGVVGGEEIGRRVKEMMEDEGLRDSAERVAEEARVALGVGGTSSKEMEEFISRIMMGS

Take `COc1ccc(Cc2c(O)cc(O)cc2O)cc1OC` [Compound 20]: the inhibition at 10 µM on SGLT2 turned out to be 0.2%. In addition, at AbCGT, the “conversion rates, O,N,S-glycosylation” value turned out to be 0%; the “conversion rates, di-C-glycosylation” value came to 0%; the “conversion rates, mono-C-glycosylation” value came out at 100%.
On to `COc1ccc(Cc2c(O)cc(O)c([C@@H]3O[C@H](CO)[C@@H](O)[C@H](O)[C@H]3O)c2O)cc1OC` [Compound 20a], for which, on SGLT2, the inhibition at 10 µM turned out to be 13.6%.
Take `COc1ccc(CCc2ccc(O)cc2O)cc1` [Compound 21]: at SGLT2, the inhibition at 10 µM is 1.8%. Also, at AbCGT, the “conversion rates, O,N,S-glycosylation” value is reported as 0%; the “conversion rates, di-C-glycosylation” value was found to be 0%; the “conversion rates, mono-C-glycosylation” value came to 100%.
In the case of `COc1ccc(CCc2ccc(O)c([C@@H]3O[C@H](CO)[C@@H](O)[C@H](O)[C@H]3O)c2O)cc1` [Compound 21a], the inhibition at 10 µM on SGLT2 came out at 22.7%.
For the molecule `CCc1ccc(O)cc1O` [Compound 27], the “conversion rates, Purified Enzyme” value at AbCGT is 5.7% and 8.5% and 6.8%. Also, the “conversion rates, Whole cells” value with E. coli-AbCGT turned out to be 0%.
With `Oc1ccc(Cc2ccccc2)c(O)c1` [Compound 28], the “conversion rates, Purified Enzyme” value at AbCGT is 55.6% and 72.2% and 58.2%. The “conversion rates, Whole cells” value with E. coli-AbCGT was 0.5% and 0.7% and 0.3%.
In the case of `Oc1ccc(/N=N/c2nccs2)c(O)c1` [Compound 29], the “conversion rates, Purified Enzyme” value at AbCGT was 35.9% and 40% and 39.9%. The “conversion rates, Whole cells” value in the test with E. coli-AbCGT was 3.7% and 5.4% and 5.9%.
`CCc1c(O)cc(O)cc1O` [Compound 30]: the “conversion rates, Purified Enzyme” value at AbCGT amounted to 100%. Further, in the test with E. coli-AbCGT, the “conversion rates, Whole cells” value amounted to 0%.
As for `Oc1cc(O)c(CC2CC2)c(O)c1` [Compound 34], the “conversion rates, Purified Enzyme” value on AbCGT was 100%. Further, the “conversion rates, Whole cells” value with E. coli-AbCGT was 11.3% and 11.9% and 15.8%.
As for `Oc1cc(O)c(CC2CCC2)c(O)c1` [Compound 35], the “conversion rates, Purified Enzyme” value on AbCGT is 100%. In addition, in the test with E. coli-AbCGT, the “conversion rates, Whole cells” value is 41.1% and 39.5% and 30.5%.
Consider `Oc1cc(O)c(CC2CCCC2)c(O)c1` [Compound 36], for which the “conversion rates, Purified Enzyme” value on AbCGT is 100%. Besides, the “conversion rates, Whole cells” value in the test on E. coli-AbCGT was 53.8% and 69.1% and 57.1%.
Consider `Oc1cc(O)c(CC2CCCCC2)c(O)c1` [Compound 37], for which, at AbCGT, the “conversion rates, Purified Enzyme” value is recorded as 100%. In addition, the “conversion rates, Whole cells” value in the test with E. coli-AbCGT is 100%.
For `Oc1cc(O)c(Cc2ccccc2)c(O)c1` [Compound 38, 1-benzylbenzene-2,4,6-triol], on SGLT2, the inhibition at 10 µM is 4.2%. In addition, the “conversion rates, Purified Enzyme” value on AbCGT came out at 100%. Also, in the test with E. coli-AbCGT, the “conversion rates, Whole cells” value was 44.3% and 46.1% and 53.7%.
On to `OCC1OC(c2c(O)cc(O)c(Cc3ccccc3)c2O)C(O)C(O)C1O` (stereo not shown) [Compound 38a], for which, on SGLT2, the inhibition at 10 µM worked out at 76.4%.
As for `Oc1cc(O)c(CCc2ccccc2)c(O)c1` [Compound 39, 1-phenethylbenzene-2,4,6-triol], on SGLT2, the inhibition at 10 µM is 0.2%. On AbCGT, the “conversion rates, Purified Enzyme” value came out at 100%. Also, the “conversion rates, Whole cells” value in the test on E. coli-AbCGT was 7.2% and 13.4% and 9.4%.
With `OCC1OC(c2c(O)cc(O)c(CCc3ccccc3)c2O)C(O)C(O)C1O` (stereo not shown) [Compound 39a], the inhibition at 10 µM on SGLT2 was determined as 23.6%.
As for `Oc1cc(O)c(CCCCc2ccccc2)c(O)c1` [Compound 40], the “conversion rates, Purified Enzyme” value on AbCGT is 100%. For the same molecule, in the test with E. coli-AbCGT, the “conversion rates, Whole cells” value is given as 100%.
`Oc1cc(O)c(Cc2ccsc2)c(O)c1` [Compound 42]: the inhibition at 10 µM at SGLT2 came out at 2.7%. In addition, the “conversion rates, Purified Enzyme” value on AbCGT is on record as 100%. The “conversion rates, Whole cells” value with E. coli-AbCGT is 73% and 84.5% and 79.6%.
Regarding `OCC1OC(c2c(O)cc(O)c(Cc3ccsc3)c2O)C(O)C(O)C1O` (stereo not shown) [Compound 42a], the inhibition at 10 µM at SGLT2 was 68.5%.
As to `Oc1cc(O)c(CCc2c[nH]c3ccccc23)c(O)c1` [Compound 43], the inhibition at 10 µM at SGLT2 worked out at 12.9%. Also, at AbCGT, the “conversion rates, Purified Enzyme” value stood at 100%. The “conversion rates, Whole cells” value in the test on E. coli-AbCGT is 87.2% and 96% and 92.6%.
`OCC1OC(c2c(O)cc(O)c(CCc3c[nH]c4ccccc34)c2O)C(O)C(O)C1O` (stereo not shown) [Compound 43a]: the inhibition at 10 µM at SGLT2 is 20.4%.
As to `CCCCc1ccc(Cc2c(O)cc(O)cc2O)cc1` [Compound 47], at SGLT2, the inhibition at 10 µM is 0.2%. In addition, on AbCGT, the “conversion rates, Purified Enzyme” value is reported as 100%. Also, the “conversion rates, Whole cells” value in the test on E. coli-AbCGT was 2.7% and 3.2% and 3.1%.
As for `Oc1cc(O)c(Cc2ccc(F)cc2)c(O)c1` [Compound 48], at SGLT2, the inhibition at 10 µM was found to be 0.2%. In addition, the “conversion rates, Purified Enzyme” value on AbCGT worked out at 100%. For the same molecule, the “conversion rates, Whole cells” value in the test on E. coli-AbCGT is 86% and 92.2% and 88.8%.
As to `OCC1OC(c2c(O)cc(O)c(Cc3ccc(F)cc3)c2O)C(O)C(O)C1O` (stereo not shown) [Compound 48a], the inhibition at 10 µM on SGLT2 is 85.4%.
In the case of `Oc1cc(O)c(Cc2ccc(Cl)cc2)c(O)c1` [Compound 49], the inhibition at 10 µM on SGLT2 came to 0.2%. Further, at AbCGT, the “conversion rates, Purified Enzyme” value came out at 100%. Besides, the “conversion rates, Whole cells” value with E. coli-AbCGT was 0.8% and 0.9%.
On to `Oc1cc(O)c(Cc2ccc(-c3ccccc3)cc2)c(O)c1` [Compound 50], for which, at SGLT2, the inhibition at 10 µM was determined as 0.2%. The “conversion rates, Purified Enzyme” value on AbCGT amounted to 100%. Also, the “conversion rates, Whole cells” value with E. coli-AbCGT was 0%.
For `Oc1ccc(CCc2c(O)cc(O)cc2O)cc1` [Compound 51], the inhibition at 10 µM on SGLT2 was 3.3%. Also, the “conversion rates, Purified Enzyme” value at AbCGT worked out at 100%. For the same molecule, the “conversion rates, Whole cells” value with E. coli-AbCGT was 87.9% and 92.2% and 95.8%.
With `OCC1OC(c2c(O)cc(O)c(CCc3ccc(O)cc3)c2O)C(O)C(O)C1O` (stereo not shown) [Compound 51a], the inhibition at 10 µM on SGLT2 was 18.6%.
With `Oc1cc(O)c(CCc2ccc3c(c2)CCO3)c(O)c1` [Compound 52], the inhibition at 10 µM at SGLT2 turned out to be 0.8%. Also, at AbCGT, the “conversion rates, Purified Enzyme” value was 100%. Also, the “conversion rates, Whole cells” value with E. coli-AbCGT was 84.1% and 72.7% and 80.3%.
For `OCC1OC(c2c(O)cc(O)c(CCc3ccc4c(c3)CCO4)c2O)C(O)C(O)C1O` (stereo not shown) [Compound 52a], at SGLT2, the inhibition at 10 µM turned out to be 36.7%.
Regarding `Oc1cc(O)c(CCc2ccc(F)cc2)c(O)c1` [Compound 53], the inhibition at 10 µM at SGLT2 worked out at 0.2%. Further, the “conversion rates, Purified Enzyme” value at AbCGT stood at 100%. The “conversion rates, Whole cells” value in the test with E. coli-AbCGT was 66.8% and 61% and 58.3%.
For the molecule `OCC1OC(c2c(O)cc(O)c(CCc3ccc(F)cc3)c2O)C(O)C(O)C1O` (stereo not shown) [Compound 53a], on SGLT2, the inhibition at 10 µM amounted to 24.3%.
As for `Oc1cc(O)c(CCc2ccc(Cl)cc2)c(O)c1` [Compound 54], the inhibition at 10 µM on SGLT2 was found to be 0.2%. Further, the “conversion rates, Purified Enzyme” value at AbCGT turned out to be 100%. Moreover, the “conversion rates, Whole cells” value in the test on E. coli-AbCGT was 39.8% and 44.7% and 47.4%.
With `OCC1OC(c2c(O)cc(O)c(CCc3ccc(Cl)cc3)c2O)C(O)C(O)C1O` (stereo not shown) [Compound 54a], the inhibition at 10 µM on SGLT2 was found to be 62.5%.

Values taken from publication PMC7558026, “Exploring and applying the substrate promiscuity of a C-glycosyltransferase in the chemo-enzymatic synthesis of bioactive C-glycosides” (Nature Communications, 2020).
